The record followed here is publication PMC11788862 (Journal of Pharmaceutical Analysis, 2024).

The structures appear in SMILES notation.

Assay [1] deals with NOD-like receptor protein 3 (NLRP3) (Homo sapiens, UniProt Q96P20). Description: SPR. The assay is classed as binding.
A further assay concerns the target NLRP3 (Mus musculus, UniProt Q8R4B8). The assay can be described thus: DARTS. The assay is classed as cell-based.

Sequence of NLRP3 (Q8R4B8 whole entry): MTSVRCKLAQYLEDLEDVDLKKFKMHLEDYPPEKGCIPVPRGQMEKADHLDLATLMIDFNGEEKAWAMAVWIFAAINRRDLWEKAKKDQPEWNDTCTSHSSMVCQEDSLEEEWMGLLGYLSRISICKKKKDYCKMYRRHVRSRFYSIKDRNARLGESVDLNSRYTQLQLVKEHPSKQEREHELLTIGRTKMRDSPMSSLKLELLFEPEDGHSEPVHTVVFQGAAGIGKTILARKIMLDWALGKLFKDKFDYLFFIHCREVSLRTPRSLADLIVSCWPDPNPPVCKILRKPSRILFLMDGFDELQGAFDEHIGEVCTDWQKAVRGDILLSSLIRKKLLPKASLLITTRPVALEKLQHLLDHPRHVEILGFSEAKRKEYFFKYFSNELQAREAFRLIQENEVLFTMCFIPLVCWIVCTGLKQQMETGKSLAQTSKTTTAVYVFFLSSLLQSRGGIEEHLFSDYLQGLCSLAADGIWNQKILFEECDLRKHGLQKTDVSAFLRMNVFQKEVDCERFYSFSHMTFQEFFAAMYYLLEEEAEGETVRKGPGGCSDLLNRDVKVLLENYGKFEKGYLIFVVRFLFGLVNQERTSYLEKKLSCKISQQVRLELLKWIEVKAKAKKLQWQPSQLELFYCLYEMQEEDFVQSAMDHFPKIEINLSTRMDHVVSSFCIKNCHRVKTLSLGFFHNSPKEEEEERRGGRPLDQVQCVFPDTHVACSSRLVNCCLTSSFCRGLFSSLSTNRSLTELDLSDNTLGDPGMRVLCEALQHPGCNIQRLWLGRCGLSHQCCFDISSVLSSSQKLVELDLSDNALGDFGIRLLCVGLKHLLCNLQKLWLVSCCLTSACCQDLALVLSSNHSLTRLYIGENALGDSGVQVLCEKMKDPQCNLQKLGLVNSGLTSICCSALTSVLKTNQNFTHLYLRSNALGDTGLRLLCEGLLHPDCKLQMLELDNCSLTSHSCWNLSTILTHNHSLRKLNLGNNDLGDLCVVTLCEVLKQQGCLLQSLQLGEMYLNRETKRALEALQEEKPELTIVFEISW
Sequence of NOD-like receptor protein 3 (NLRP3) (Q96P20 220-536 limits assumed): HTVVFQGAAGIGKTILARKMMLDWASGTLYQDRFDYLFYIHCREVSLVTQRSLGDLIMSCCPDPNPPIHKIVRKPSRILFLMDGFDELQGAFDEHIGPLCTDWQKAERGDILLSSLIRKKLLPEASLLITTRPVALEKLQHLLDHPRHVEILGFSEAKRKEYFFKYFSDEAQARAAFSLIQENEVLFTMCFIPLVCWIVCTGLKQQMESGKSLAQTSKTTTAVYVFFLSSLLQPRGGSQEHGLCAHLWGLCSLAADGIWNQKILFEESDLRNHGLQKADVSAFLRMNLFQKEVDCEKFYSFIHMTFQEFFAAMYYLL

One may read the Kd as a measure of binding affinity in units of concentration. Low readings indicate higher affinity, high ones lower affinity. In assay [1], `Oc1c(I)cc(Cl)c2cccnc12` [CQ, 5-chloro-7-iodo-8-hydroxyquinoline] showed a Kd of 9.93 µM. At NLRP3, the “DARTS (BMDM lysates, CQ 15 μM) and CETSA (BMDMs)” value is on record as “pre-incubation of CQ with BMDM cell lysates attenuated pronase-induced proteolysis of NLRP3”.
